Results published in PubChem BioAssay (NCI).
“And” between values parts separate entries of the source, which are not always exact repeats. Identical values can stand only once.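 Compound exposure: 48 hours, 5 concentrations, 96-well plates. At the GI50, growth is halved. The concentration for full growth arrest is given as TGI.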

Legend:
Assay in all cases: NCI-60 cell line screen, 48 h
[1] = tested on: HOP-62 NSCLC
[2] = tested on: NCI-H460 lung
[3] = tested on: HT29 colon
[4] = tested on: HCT-15 colon
[5] = tested on: 786-0 renal
[6] = tested on: NCI-H522 lung
[7] = tested on: K-562 leukemia
[8] = tested on: SK-MEL-5 melanoma
[9] = tested on: HCT-116 colon
[10] = tested on: HS 578T breast

Row | SMILES | GI50 [1] | TGI [1] | GI50 [2] | TGI [2] | GI50 [3] | TGI [3] | GI50 [4] | TGI [4] | GI50 [5] | TGI [5] | GI50 [6] | TGI [6] | GI50 [7] | TGI [7] | GI50 [8] [µM] | TGI [8] [µM] | GI50 [9] | TGI [9] | GI50 [10] | TGI [10]
1 | O=C(Nc1cccc(C(F)(F)F)c1)Nc1cccc(C(F)(F)F)c1 | 1.4 µM | 3.64 µM | 0.441 µM | 5.73 µM | 0.84 µM | 6.06 µM | 0.464 µM | 3.41 µM | 1.56 µM | 4.14 µM | 1.2 µM | 4.32 µM | 0.431 µM | 10.3 µM | 1.28 | 2.55 | 0.462 µM | 2.76 µM | 2.25 µM | 12.5 µM
2 | NC(=S)N/N=C1\c2cc(Cl)ccc2-c2c1cc(Cl)cc2[N+](=O)[O-] | 7.12 µM | 74.7 µM | 3.27 µM | 20.7 µM | 10 µM | 61.2 µM | 4.33 µM | > 100 µM | 5.41 µM | 91.3 µM | 4.11 µM | 48.6 µM | 4.76 µM | > 100 µM | 2.77 | 9.28 | 2.89 µM | 27.4 µM | 18.8 µM | > 100 µM
3 | Cc1cc2c(cc1C)[n+](=O)c(C(=O)c1ccccc1)c(C(F)F)n2[O-] | 26.4 µM | > 100 µM | 5 µM | > 100 µM | 17.2 µM | > 100 µM | 6.76 µM | > 100 µM | 32 µM | > 100 µM | 7.82 µM | 27.2 µM | 10.1 µM | > 100 µM | 9.3 | 25 | 30.8 µM | > 100 µM | 32 µM | > 100 µM
4 | CC(=O)Nc1cc2ccc(=O)oc2cc1Cl | – | > 100 µM | – | > 100 µM | – | > 100 µM | – | > 100 µM | – | > 100 µM | – | > 100 µM | – | > 100 µM | – | > 100 | – | > 100 µM | – | > 100 µM
5 | CCOC(=O)n1cc(C2=C(c3ccc(OC)c(OC)c3)COC2=O)c2ccccc21 | 0.075 µM | > 100 µM | 0.122 µM | 18.3 µM | 0.0364 µM | > 100 µM | 0.0408 µM | > 100 µM | 0.0625 µM | > 100 µM | 0.0389 µM | > 33.3 µM | 0.0325 µM | > 100 µM | 0.041 | 0.48 | 0.0482 µM | > 100 µM | 0.087 µM | > 100 µM
6 | NC(N)=NS(=O)(=O)c1ccc(N=Nc2c(O)c(C(=O)O)cc3ccccc23)cc1 | – | > 100 µM | – | > 100 µM | – | > 100 µM | – | > 100 µM | – | > 100 µM | – | > 100 µM | – | > 100 µM | – | > 100 | – | > 100 µM | – | > 100 µM
7 | O=C1CSC(=S)N1/N=C/c1ccc(Cl)c([N+](=O)[O-])c1 | – | 86.3 µM | – | > 100 µM | – | > 100 µM | – | 42.1 µM | – | > 100 µM | – | 36.8 µM | – | > 100 µM | – | > 100 | – | 48.2 µM | – | > 100 µM
8 | COC1=CC(=O)C(C2(OC(C)C)OC(=O)C(Cl)=C2Cl)=CC1=O (stereo unspecified) | – | > 100 µM | – | > 100 µM | – | > 100 µM | – | > 100 µM | – | 86.4 µM | – | 96 µM | – | 10.8 µM | – | > 100 | – | > 100 µM | – | > 100 µM
9 | Nc1nc2[nH]cc(CCc3ccc(C(=O)N[C@@H](CCC(=O)O)C(=O)O)cc3)c2c(=O)[nH]1 | 0.724 µM | > 100 µM | 0.272 µM | > 100 µM | 35 µM | > 100 µM | – | > 100 µM | 0.0611 µM | > 100 µM | – | > 100 µM | – | > 100 µM | – | > 100 | 0.127 µM | > 100 µM | – | > 100 µM
10 | C=CC(=O)Nc1cc(Nc2nccc(-c3cn(C)c4ccccc34)n2)c(OC)cc1N(C)CCN(C)C | 4.07 µM and 3.58 µM | 18.3 µM and > 10 µM | 2.18 µM and 2.14 µM | 5.15 µM and 6.09 µM | 1.84 µM and 1.51 µM | 4.07 µM and 3.24 µM | 1.61 µM and 1.42 µM | 3.69 µM and 3.27 µM | 1.4 µM and 1.38 µM | 2.94 µM and 2.9 µM | 0.169 µM and 0.0657 µM | 1.98 µM and 1.53 µM | 1.73 µM and 0.349 µM | 5.2 µM and 1.73 µM | 1.72 | 3.13 | 1.72 µM and 1.51 µM | 3.3 µM and 2.96 µM | 3.32 µM and 1.89 µM | 16 µM and 9.69 µM
11 | Fc1cc(-c2nnc3n2N=C(c2ccc(Cl)cc2)CS3)c(Cl)cc1Cl | 20.1 µM | 36.4 µM | 18.2 µM | 37.4 µM | 2.71 µM | – | 4.82 µM | 13.8 µM | 2.08 µM | 3.55 µM | 2.79 µM | – | 1.57 µM | > 100 µM | 3.91 | 15 | 2.36 µM | 5.85 µM | 22.7 µM | 51.5 µM
12 | C/C=C/[C@@H]1O[C@@H]2COC(=O)C2=C[C@@H]1O | 23.5 µM | 43 µM | > 57.7 µM | > 100 µM | 5.73 µM | 46 µM | 16.9 µM | 39.8 µM | 6.79 µM | 21.1 µM | 3.95 µM | > 29.1 µM | 2.53 µM | – | 16.7 | 31.5 | 2.06 µM | 8.79 µM | 23.4 µM | 58.2 µM
13 | O=C(O)C(Cl)Cl | > 10000 µM | > 10000 µM | 6070 µM and > 10000 µM | > 10000 µM | 7200 µM and > 10000 µM | > 10000 µM | 6680 µM and > 10000 µM | > 10000 µM | 5690 µM and > 10000 µM | > 10000 µM | 8040 µM and > 10000 µM | > 10000 µM | 6300 µM and > 10000 µM | > 10000 µM | > 10000 | > 10000 | 6700 µM and > 10000 µM | > 10000 µM | 3090 µM and > 10000 µM | > 10000 µM
14 | COc1ccccc1NC(=O)c1cc2cc(Br)ccc2cc1O | 2.38 µM | 6.86 µM | 2.15 µM | 6.77 µM | 7.73 µM | 21.5 µM | 2.37 µM | 8.54 µM | 3.52 µM | 11.2 µM | 1.86 µM | 7 µM | 2.37 µM | > 100 µM | 1.46 | 3.11 | 2.8 µM | 10.3 µM | 2.61 µM | –
15 | O=C1c2c(F)c(F)c(F)c(F)c2C(=O)N1c1ccc(F)cc1F | 15.2 µM | 31.4 µM | 9.35 µM | > 51 µM | 7.36 µM | > 100 µM | 2.57 µM | 7.43 µM | 11 µM | > 43.8 µM | 6.58 µM | > 25 µM | 2.58 µM | > 33.9 µM | 13.1 | 30.6 | 3.71 µM | 14.2 µM | 35.5 µM | > 100 µM
16 | OC(c1cc(C(F)(F)F)nc2c(C(F)(F)F)cccc12)C1CCCCN1 (stereo unspecified) | 1.84 µM | 5.13 µM | 2.07 µM | 4.14 µM | 1.99 µM | 3.92 µM | 3.51 µM | 10.9 µM | 1.88 µM | 3.77 µM | 1.65 µM | 3.2 µM | 3.12 µM | 6.47 µM | 1.68 | 3.07 | 1.79 µM | 3.22 µM | 3.8 µM | 19.5 µM
17 | CC(=C(c1ccc(OCCN2CCCCC2)cc1)c1ccc(OCCN2CCCCC2)cc1)c1ccc(Cl)cc1 | 0.439 µM | 0.888 µM | 0.452 µM | 0.844 µM | 0.35 µM | 0.779 µM | 0.34 µM | 0.685 µM | 0.419 µM | 0.805 µM | 0.411 µM | 0.872 µM | 0.0775 µM | 0.362 µM | 0.443 | 0.793 | 0.39 µM | 0.743 µM | 0.458 µM | 1.04 µM
18 | CC(=O)N[C@@H](Cc1ccc(OP(=O)(O)O)cc1)C(=O)N[C@H]1CCC(=O)N2CCC[C@@H](C(=O)Nc3cccc4ccccc34)N2C1=O | > 25 µM | > 25 µM | > 25 µM | > 25 µM | > 25 µM | > 25 µM | > 25 µM | > 25 µM | > 25 µM | > 25 µM | > 25 µM | > 25 µM | > 25 µM | > 25 µM | > 25 | > 25 | > 25 µM | > 25 µM | > 25 µM | > 25 µM
19 | O=C(Nc1nn2c(-c3cc(C(F)(F)F)cc(C(F)(F)F)c3)nnc2s1)C1CCCC1 | 2.42 µM | > 29.8 µM | 0.473 µM | > 100 µM | 1.11 µM | > 32.5 µM | 0.665 µM | > 100 µM | 0.663 µM | > 32.8 µM | 0.277 µM | 2.29 µM | 0.488 µM | > 100 µM | 0.251 | 1.74 | 0.518 µM | > 100 µM | 0.706 µM | > 100 µM
20 | CC(=O)OC1(C)N=NC2(CCCCC2)O1 (stereo unspecified) | – | > 100 µM | – | > 100 µM | – | > 100 µM | – | > 100 µM | – | > 100 µM | – | > 100 µM | – | > 100 µM | – | > 100 | – | > 100 µM | – | > 100 µM
21 | C=C(C)C(=O)O[C@@H]1C[C@@]2(C)O[C@@H]2C[C@H](O)/C(C)=C/[C@H]2OC(=O)C(=C)[C@@H]21 | – | > 100 µM | – | > 100 µM | – | > 100 µM | – | > 100 µM | – | > 100 µM | – | 31.6 µM | – | > 100 µM | – | > 100 | – | > 100 µM | – | > 100 µM
